# Numbers after ± are expanded uncertainties.
# Assay: wn = mass fraction of the nth substance listed
# Conditions: 298.15 K; for surface tension liquid-gas: Pendant drop shape; for mass density / viscosity: 101 kPa, Liquid; for mass density: Vibrating tube method
smiles,measurement,setting,value
CCOS(=O)(=O)[O-].CCn1cc[n+](C)c1 [1-ethyl-3-methylimidazolium ethyl sulfate] + O,surface tension liquid-gas,w2 = 0.000475,47 ± 1.2 mN/m
same,surface tension liquid-gas,w2 = 0.00754,47.23 ± 1.2 mN/m
same,surface tension liquid-gas,w2 = 0.0144,48.01 ± 1.3 mN/m
same,surface tension liquid-gas,w2 = 0.02531,48.08 ± 1.3 mN/m
same,surface tension liquid-gas,w2 = 0.03047,48.09 ± 1.2 mN/m
same,surface tension liquid-gas,w2 = 0.03849,47.93 ± 1.2 mN/m
same,surface tension liquid-gas,w2 = 0.04185,48.14 ± 1.2 mN/m
same,surface tension liquid-gas,w2 = 0.05643,47.95 ± 1.2 mN/m
same,surface tension liquid-gas,w2 = 0.06937,48.25 ± 1.2 mN/m
same,surface tension liquid-gas,w2 = 0.07519,48.97 ± 1.2 mN/m
same,surface tension liquid-gas,w2 = 0.09292,49.35 ± 1.2 mN/m
same,surface tension liquid-gas,w2 = 0.09493,50.11 ± 1.2 mN/m
same,mass density,w2 = 0.000475,1236.26 ± 8.3 kg/m3
same,mass density,w2 = 0.00754,1234.51 ± 8.2 kg/m3
same,mass density,w2 = 0.0144,1233.93 ± 8.1 kg/m3
same,mass density,w2 = 0.02531,1231.35 ± 7.8 kg/m3
same,mass density,w2 = 0.03047,1230 ± 7.7 kg/m3
same,mass density,w2 = 0.03849,1227.15 ± 7.6 kg/m3
same,mass density,w2 = 0.04185,1228.01 ± 7.5 kg/m3
same,mass density,w2 = 0.05643,1226.3 ± 7.3 kg/m3
same,mass density,w2 = 0.06937,1222.45 ± 7 kg/m3
same,mass density,w2 = 0.07519,1219.51 ± 6.9 kg/m3
same,mass density,w2 = 0.09292,1215.44 ± 6.6 kg/m3
same,mass density,w2 = 0.09493,1214.98 ± 6.6 kg/m3
same,viscosity,w2 = 0.000475,91.85 ± 45 mPa·s
same,viscosity,w2 = 0.00754,83.6 ± 35 mPa·s
same,viscosity,w2 = 0.0144,70.21 ± 19 mPa·s
same,viscosity,w2 = 0.02531,65.61 ± 14 mPa·s
same,viscosity,w2 = 0.03047,55.78 ± 5.1 mPa·s
same,viscosity,w2 = 0.03849,41.85 ± 7.8 mPa·s
same,viscosity,w2 = 0.04185,33.3 ± 6.2 mPa·s
same,viscosity,w2 = 0.05643,30.63 ± 5.7 mPa·s
same,viscosity,w2 = 0.06937,24.8 ± 4.6 mPa·s
same,viscosity,w2 = 0.07519,23.63 ± 4.4 mPa·s
same,viscosity,w2 = 0.09292,17.41 ± 3.3 mPa·s
same,viscosity,w2 = 0.09493,14.73 ± 2.8 mPa·s
